Values after ≈ are worked out from the molar mass of the structure shown. Active and inactive are the calls of the source. The rule behind the calls is not given here. Positions of bridges follow the written chain, without caps; N, C: chain ends. Residues, ends and D or L forms follow the SMILES beside them. *: point of attachment. FITC = O=C1OC2(c3ccc(O)cc3Oc3cc(O)ccc32)c2ccc(NC(=S)*)cc21; Ahx = NCCCCCC(=O)O
Tests used:
[1] = Drug uptake in Staphylococcus aureus KCTC 1621 cytoplasm at 30 uM after 20 mins using FITC-labeled compound by confocal laser-scanning microscopy; assay type: ADME
[2] = test system: Escherichia coli; assay: Antimicrobial activity against Escherichia coli KCTC 1682 after 18 hrs using FITC-labelled compound; assay type: functional; details: KCTC 1682, 18 h
[3] = test system: Staphylococcus aureus; assay: Antimicrobial activity against Staphylococcus aureus KCTC 1621 after 18 hrs using FITC-labelled compound; assay type: functional; details: KCTC 1621, 18 h
[4] = Drug uptake in Escherichia coli KCTC 1682 cytoplasm at 30 uM after 20 mins using FITC-labeled compound by confocal laser-scanning microscopy; assay type: ADME
[5] = test system: Escherichia coli; assay: Induction of membrane permeabilization in Escherichia coli KCTC 1682 assessed as PI-positive cells at 16 uM after 1 to 2 hrs by propidium iodide-staining based flow cytometry (reference value: 2.36%); assay type: functional
[6] = test system: Staphylococcus aureus; assay: Antimicrobial activity against methicillin-resistant Staphylococcus aureus CCARM 3095 after 18 hrs; assay type: functional; details: CCARM 3095, 18 h
[7] = test system: Staphylococcus aureus; assay: Antimicrobial activity against methicillin-resistant Staphylococcus aureus CCARM 3089 after 18 hrs; assay type: functional; details: CCARM 3089, 18 h
[8] = test system: Salmonella typhimurium; assay: Antimicrobial activity against Salmonella typhimurium KCTC 1926 after 18 hrs; assay type: functional, Salmonella enterica subsp. enterica serovar Typhimurium; details: Salmonella enterica, KCTC 1926, 18 h
[9] = test system: Escherichia coli; assay: Antimicrobial activity against Escherichia coli KCTC 1682 after 18 hrs; assay type: functional; details: KCTC 1682, 18 h
[10] = test system: Pseudomonas aeruginosa; assay: Antimicrobial activity against multidrug-resistant Pseudomonas aeruginosa CCARM 2095 after 18 hrs; assay type: functional; details: CCARM 2095, 18 h
[11] = test system: Staphylococcus epidermidis; assay: Antimicrobial activity against Staphylococcus epidermidis KCTC 1617 after 18 hrs; assay type: functional; details: KCTC 1617, 18 h
[12] = test system: Staphylococcus aureus; assay: Induction of membrane permeabilization in Staphylococcus aureus KCTC 1621 at 2 to 8 times MIC concentration up to 300 secs by SYTOX green uptake assay; assay type: functional, organism-based
[13] = test system: Pseudomonas aeruginosa; assay: Antimicrobial activity against Pseudomonas aeruginosa KCTC 1637 after 18 hrs; assay type: functional; details: KCTC 1637, 18 h
[14] = test system: Enterococcus faecium; assay: Antimicrobial activity against vancomycin-resistant Enterococcus faecium ATCC 51559 after 18 hrs; assay type: functional; details: ATCC 51559, 18 h
[15] = test system: Staphylococcus aureus; assay: Antimicrobial activity against methicillin-resistant Staphylococcus aureus CCARM 3090 after 18 hrs; assay type: functional; details: CCARM 3090, 18 h
[16] = test system: Staphylococcus aureus; assay: Induction of cytoplasmic membrane depolarization in Staphylococcus aureus KCTC 1621 at 2 to 8 times MIC concentration by DiSC3(5)-dye based fluorescence spectrophotometry; assay type: functional, organism-based
[17] = test system: Staphylococcus aureus; assay: Antimicrobial activity against Staphylococcus aureus KCTC 1621 after 18 hrs; assay type: functional; details: KCTC 1621, 18 h
[18] = test system: Bacillus subtilis; assay: Antimicrobial activity against Bacillus subtilis KCTC 3068 after 18 hrs; assay type: functional; details: KCTC 3068, 18 h

In the case of CC[C@H](C)[C@@H]1NC(=O)[C@H]([C@@H](C)O)NC(=O)[C@H](Cc2cnc[nH]2)NC(=O)[C@H](CCCNC(=N)N)NC(=O)[C@H](C)NC(=O)[C@H](CCCNC(=N)N)NC(=O)[C@H](CC(C)C)NC(=O)[C@H](CO)NC(=O)[C@H](C)NC(=O)[C@@H](NC(=O)[C@H](CC(C)C)NC(=O)[C@H](CC(N)=O)NC(=O)CCCCCNC(=S)Nc2ccc3c(c2)C(=O)OC32c3ccc(O)cc3Oc3cc(O)ccc32)CSSC[C@@H](C(=O)N[C@@H](CCCNC(=N)N)C(=O)N[C@@H](CCCCN)C(=O)N[C@@H](Cc2ccccc2)C(=O)NCC(=O)N[C@@H](CCCNC(=N)N)C(=O)N[C@@H](CCCNC(=N)N)C(N)=O)NC(=O)[C@H](CCC(N)=O)NC(=O)[C@@H]2CCCN2C1=O ({FITC-Ahx}-NLCASLRARHTIPQCRKFGRR-NH2; disulfide 3-15), the Drug uptake [1] is reported as “Active”, the MIC [2] is reported as 12.5 µM (≈ 37.3 µg/mL) and the MIC [3] is reported as 12.5 µM (≈ 37.3 µg/mL). The Drug uptake [4] was “Active”.
In the case of CC[C@H](C)[C@H](NC(=O)[C@H](CCCCN)NC(=O)[C@H](CCC(=O)O)NC(=O)[C@H](CCCCN)NC(=O)[C@H](CO)NC(=O)[C@H](CCCCN)NC(=O)[C@H](CCCNC(=N)N)NC(=O)[C@H](Cc1ccccc1)NC(=O)[C@H](Cc1ccccc1)NC(=O)[C@H](CC(=O)O)NC(=O)CNC(=O)[C@H](CC(C)C)NC(=O)[C@@H](N)CC(C)C)C(=O)NCC(=O)N[C@@H](CCCCN)C(=O)N[C@@H](CCC(=O)O)C(=O)N[C@@H](Cc1ccccc1)C(=O)N[C@@H](CCCCN)C(=O)N[C@@H](CCCNC(=N)N)C(=O)N[C@H](C(=O)N[C@H](C(=O)N[C@@H](CCC(N)=O)C(=O)N[C@@H](CCCNC(=N)N)C(=O)N[C@H](C(=O)N[C@@H](CCCCN)C(=O)N[C@@H](CC(=O)O)C(=O)N[C@@H](Cc1ccccc1)C(=O)N[C@@H](CC(C)C)C(=O)N[C@@H](CCCNC(=N)N)C(=O)N[C@@H](CC(N)=O)C(=O)N[C@@H](CC(C)C)C(=O)N[C@H](C(=O)N1CCC[C@H]1C(=O)N[C@@H](CCCNC(=N)N)C(=O)N[C@H](C(=O)N[C@@H](CCC(=O)O)C(=O)N[C@@H](CO)C(=O)O)[C@@H](C)O)C(C)C)[C@@H](C)CC)C(C)C)[C@@H](C)CC [CATHELICIDIN], the Activity [5] is reported as 75.38%.
Compound CC[C@H](C)[C@H](NC(=O)[C@@H](NC(=O)[C@H](Cc1cnc[nH]1)NC(=O)[C@H](CCCNC(=N)N)NC(=O)[C@H](C)NC(=O)[C@H](CCCNC(=N)N)NC(=O)[C@H](CC(C)C)NC(=O)[C@H](CO)NC(=O)[C@H](C)NC(=O)[C@H](CC(C)C)NC(=O)[C@@H](N)CC(N)=O)[C@@H](C)O)C(=O)N1CCC[C@H]1C(=O)N[C@@H](CCC(N)=O)C(=O)N[C@@H](CCCNC(=N)N)C(=O)N[C@@H](CCCCN)C(=O)N[C@@H](Cc1ccccc1)C(=O)NCC(=O)N[C@@H](CCCNC(=N)N)C(=O)N[C@@H](CCCNC(=N)N)C(N)=O (H-NLASLRARHTIPQRKFGRR-NH2) has an MIC [6] of 25 µM (≈ 56.9 µg/mL), an MIC [7] of 12.5 µM (≈ 28.5 µg/mL) and an MIC [8] of 6.3 µM (≈ 14.3 µg/mL). The MIC [9] was 6.3 µM (≈ 14.3 µg/mL), the MIC [10] was 25 µM (≈ 56.9 µg/mL) and the MIC [11] was 6.3 µM (≈ 14.3 µg/mL). For the same compound, the Activity [12] was “inactive”, the MIC [13] was 6.3 µM (≈ 14.3 µg/mL) and the MIC [14] was 50 µM (≈ 114 µg/mL). For the same compound, the MIC [15] was 25 µM (≈ 56.9 µg/mL), the Activity [16] was “inactive” and the MIC [17] was 12.5 µM (≈ 28.5 µg/mL). The MIC [18] was 6.3 µM (≈ 14.3 µg/mL).

From ChEMBL document CHEMBL4257591 (J Med Chem, 2018)
